The target in the test is T1, human P2X7 (Homo sapiens, UniProt Q99572).
T1 construct: 1321N1 cells stably expressing the full length human P2X7 gene (1321N1-hP2X7)
T1 sequence (Q99572 1-595): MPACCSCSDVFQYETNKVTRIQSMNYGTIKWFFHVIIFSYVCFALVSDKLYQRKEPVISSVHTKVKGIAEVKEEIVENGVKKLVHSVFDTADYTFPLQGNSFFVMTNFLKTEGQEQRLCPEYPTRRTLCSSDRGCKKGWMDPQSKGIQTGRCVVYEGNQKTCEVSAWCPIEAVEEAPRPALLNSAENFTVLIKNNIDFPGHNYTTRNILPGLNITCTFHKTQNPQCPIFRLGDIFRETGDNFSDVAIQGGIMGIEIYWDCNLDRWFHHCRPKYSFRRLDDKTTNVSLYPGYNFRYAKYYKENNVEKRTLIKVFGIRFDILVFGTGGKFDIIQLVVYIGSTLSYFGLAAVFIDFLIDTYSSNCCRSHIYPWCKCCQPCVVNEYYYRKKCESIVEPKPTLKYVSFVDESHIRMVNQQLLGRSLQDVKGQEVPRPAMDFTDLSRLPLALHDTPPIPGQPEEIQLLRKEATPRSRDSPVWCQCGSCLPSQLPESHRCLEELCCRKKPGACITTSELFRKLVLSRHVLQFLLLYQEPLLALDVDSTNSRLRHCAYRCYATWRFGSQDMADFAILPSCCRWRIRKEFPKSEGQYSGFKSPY
Briefly: Intracellular Calcium Flux (FLIPR) Assay. The test is classed as cell-based. The settings on record: 1321N1 cells stably expressing full length human P2X7; agonist 100 μM BzATP; fluo-3 calcium flux; read-out: FLIPR pIC50 hP2X7-1321n1 (converted). The method, then: Stock solutions of compounds were prepared from powders as a 10 mM DMSO stock solution. These solutions were stored at RT during the two week period of these experiments to prevent freeze-thaw of the DMSO stocks. The DMSO stocks were added to the appropriate assay buffer at a concentration of 10 μM, and then diluted serially to the final concentrations that were tested. No observable precipitate was formed at any time during this process. The aqueous solutions of compounds as well as ATP (Sigma A7699) and BzATP (Sigma B6396) were prepared fresh for each day of experiment.
1321N1 cells stably expressing the full length human P2X7 gene (1321N1-hP2X7) and HEK293 cells stably expressing the full length rat P2X7 gene (HEK293-rP2X7) were obtained from the Roche Cell Culture Facility. 1321N1-hP2X7 cells were grown in Dulbecco's Modified Eagle's Medium (DMEM) high glucose supplemented with 10% FBS and 250 μg/mL G418. HEK293-rP2X7 cells were grown in DMEM/F-12 supplemented with 10% FBS, 1 mM CaCl2, 2 mM MgCl2, 2 mM L-Glutamine and 500 μg/ml G418. Cells were split such that they never became >70% confluent.
On the day prior to the experiment, 1321N1-hP2X7 or HEK293-rP2X7 cells were released into suspension with calcium-free PBS+Versene and washed by centrifugation with calcium-free PBS to remove the Versene. Cells were resuspended in growth medium at a density of 2.5×10^5 cells/mL and seeded into black walled, clear bottom 96 well plates (50,000 cells/well) approximately 18 hr prior to intracellular calcium flux experiments.
On the day of the experiment, plates were washed with FLIPR buffer (calcium- and magnesium-free Hank's Balanced Salt Solution (HBSS) supplemented with 10 mM Hepes, 2.5 mM probenecid and 2 mM calcium chloride) using a BIO-TEK 96 channel plate washer and incubated with […] fluo-3 dye at 37° C. for one hr. The dye was then removed by plate washing and the cells were allowed to equilibrate for 20 min at room temperature with antagonist or vehicle (FLIPR buffer). Agonist (100 μM BzATP final concentration for hP2X7; 5 μM BzATP final concentration or rP2X7) was added online with the FLIPR and fluorescence measurements made at 1 sec intervals for 60 sec followed by 3 sec intervals for a further 4 min (5 min total). A final addition of 5 μM ionomycin was made and the maximal BzATP-evoked fluorescence normalized to the maximal ionomycin-evoked fluorescence.
For orientation: Calcium flux is commonly read through the fluorescence of an indicator in the cells.

For `CS(=O)(=O)c1ccc(C(Cc2ccc(F)cc2)C(=O)Nc2ncc(-c3ccccc3)o2)cc1` (centres unmarked) [Compound I-48, 3-(4-Fluoro-phenyl)-2-(4-methanesulfonyl-phenyl)-N-(5-phenyl-oxazol-2-yl)-propionamide], the IC50 was 0.295 µM.

Regarding `CS(=O)(=O)c1ccc(C(Cc2ccc(F)cc2)C(=O)Nc2nc3cc(C(F)(F)F)ccc3o2)cc1` (centres unmarked) [Compound I-41, 3-(4-Fluoro-phenyl)-2-(4-methanesulfonyl-phenyl)-N-(5-trifluoromethyl-benzooxazol-2-yl)-propionamide], the IC50 was 0.115 µM.

Consider `Cc1ccccc1C[C@H](C(=O)Nc1nc2ccccc2o1)c1ccc(S(C)(=O)=O)cc1` [Compound I-10, (S)—N-Benzooxazol-2-yl-2-(4-methanesulfonyl-phenyl)-3-o-tolyl-propionamide], for which the IC50 is 0.427 µM.

Take `Cc1ccccc1C[C@@H](C(=O)Nc1nc2ccccc2o1)c1ccc(S(C)(=O)=O)cc1` [Compound I-11, (R)—N-Benzooxazol-2-yl-2-(4-methanesulfonyl-phenyl)-3-o-tolyl-propionamide]: the IC50 was 0.0813 µM.

`CC(C)(O)c1cnc(NC(=O)C(Cc2ccc(F)cc2)c2ccc(S(C)(=O)=O)cc2)cn1` (centres unmarked) [Compound I-17, 3-(4-Fluoro-phenyl)-N-[5-(1-hydroxy-1-methyl-ethyl)-pyrazin-2-yl]-2-(4-methanesulfonyl-phenyl)-propionamide]: the IC50 is 1.07 µM.

Regarding `CC(=O)OCc1cnc(NC(=O)C(Cc2ccc(F)cc2)c2ccc(S(C)(=O)=O)cc2)cn1` (centres unmarked) [Compound I-49, Acetic acid 5-[3-(4-fluoro-phenyl)-2-(4-methanesulfonyl-phenyl)-propionylamino]-pyrazin-2-ylmethyl ester], the IC50 is 0.871 µM.

For `CS(=O)(=O)c1ccc(C(Cc2ccc(F)cc2)C(=O)Nc2cnc(Br)cn2)cc1` (centres unmarked) [Compound I-13, N-(5-Bromo-pyrazin-2-yl)-3-(4-fluoro-phenyl)-2-(4-methanesulfonyl-phenyl)-propionamide], the IC50 is 0.813 µM.

With `O=C(Nc1nc2ccccc2o1)C(Cc1ccc(F)cc1)c1ccc(F)cc1` (centres unmarked) [Compound I-28, N-Benzooxazol-2-yl-2,3-bis-(4-fluoro-phenyl)-propionamide], the IC50 was 0.437 µM.

As to `COC(=O)c1ccc2nc(NC(=O)C(Cc3ccc(F)cc3)c3ccc(S(C)(=O)=O)cc3)oc2c1` (centres unmarked) [Compound I-45, 2-[3-(4-Fluoro-phenyl)-2-(4-methanesulfonyl-phenyl)-propionylamino]-benzooxazole-6-carboxylic acid methyl ester], the IC50 is 0.617 µM.

In the case of `Cc1cc(C)c2oc(NC(=O)C(Cc3ccc(F)cc3)c3ccc(S(C)(=O)=O)cc3)nc2c1` (centres unmarked) [Compound I-43, N-(5,7-Dimethyl-benzooxazol-2-yl)-3-(4-fluoro-phenyl)-2-(4-methanesulfonyl-phenyl)-propionamide], the IC50 was 0.102 µM.

Turning to `CS(=O)(=O)c1ccc(C(Cc2ccc(F)cc2)C(=O)Nc2nc3ccc(F)cc3o2)cc1` (centres unmarked) [Compound I-40, N-(6-Fluoro-benzooxazol-2-yl)-3-(4-fluoro-phenyl)-2-(4-methanesulfonyl-phenyl)-propionamide], the IC50 was 0.0389 µM.

In the case of `Cc1cccc2oc(NC(=O)C(Cc3ccc(F)cc3)c3ccc(S(C)(=O)=O)cc3)nc12` (centres unmarked) [Compound I-35, 3-(4-Fluoro-phenyl)-2-(4-methanesulfonyl-phenyl)-N-(4-methyl-benzooxazol-2-yl)-propionamide], the IC50 was 0.468 µM.

Take `CS(=O)(=O)c1ccc([C@@H](Cc2ccc(F)cc2)C(=O)Nc2cnc(CO)cn2)cc1` [Compound I-50a, (R)-3-(4-Fluoro-phenyl)-N-(5-hydroxymethyl-pyrazin-2-yl)-2-(4-methanesulfonyl-phenyl)-propionamide]: the IC50 was 0.38 µM.

Regarding `COc1ccc2oc(NC(=O)C(Cc3ccc(F)cc3)c3ccc(S(C)(=O)=O)cc3)nc2c1` (centres unmarked) [Compound I-44, 3-(4-Fluoro-phenyl)-2-(4-methanesulfonyl-phenyl)-N-(5-methoxy-benzooxazol-2-yl)-propionamide], the IC50 is 0.0759 µM.

(Values after patent US20120149718A1, “Amido Compounds” (priority 2010, published 2012).)
